The values below come from publication PMC7509217 (Cellular and Molecular Gastroenterology and Hepatology, 2020).

The target in the experiment is rat ACC2 (acetyl-CoA carboxylase 2) (Rattus norvegicus, UniProt O70151). Kind of experiment: citrate-activated ACC enzyme, […]bicarbonate incorporation into malonyl-CoA. It is filed as biochemical.

SMILES strings stand for the structures.

Chain of rat ACC2 (acetyl-CoA carboxylase 2) (O70151 1-2456): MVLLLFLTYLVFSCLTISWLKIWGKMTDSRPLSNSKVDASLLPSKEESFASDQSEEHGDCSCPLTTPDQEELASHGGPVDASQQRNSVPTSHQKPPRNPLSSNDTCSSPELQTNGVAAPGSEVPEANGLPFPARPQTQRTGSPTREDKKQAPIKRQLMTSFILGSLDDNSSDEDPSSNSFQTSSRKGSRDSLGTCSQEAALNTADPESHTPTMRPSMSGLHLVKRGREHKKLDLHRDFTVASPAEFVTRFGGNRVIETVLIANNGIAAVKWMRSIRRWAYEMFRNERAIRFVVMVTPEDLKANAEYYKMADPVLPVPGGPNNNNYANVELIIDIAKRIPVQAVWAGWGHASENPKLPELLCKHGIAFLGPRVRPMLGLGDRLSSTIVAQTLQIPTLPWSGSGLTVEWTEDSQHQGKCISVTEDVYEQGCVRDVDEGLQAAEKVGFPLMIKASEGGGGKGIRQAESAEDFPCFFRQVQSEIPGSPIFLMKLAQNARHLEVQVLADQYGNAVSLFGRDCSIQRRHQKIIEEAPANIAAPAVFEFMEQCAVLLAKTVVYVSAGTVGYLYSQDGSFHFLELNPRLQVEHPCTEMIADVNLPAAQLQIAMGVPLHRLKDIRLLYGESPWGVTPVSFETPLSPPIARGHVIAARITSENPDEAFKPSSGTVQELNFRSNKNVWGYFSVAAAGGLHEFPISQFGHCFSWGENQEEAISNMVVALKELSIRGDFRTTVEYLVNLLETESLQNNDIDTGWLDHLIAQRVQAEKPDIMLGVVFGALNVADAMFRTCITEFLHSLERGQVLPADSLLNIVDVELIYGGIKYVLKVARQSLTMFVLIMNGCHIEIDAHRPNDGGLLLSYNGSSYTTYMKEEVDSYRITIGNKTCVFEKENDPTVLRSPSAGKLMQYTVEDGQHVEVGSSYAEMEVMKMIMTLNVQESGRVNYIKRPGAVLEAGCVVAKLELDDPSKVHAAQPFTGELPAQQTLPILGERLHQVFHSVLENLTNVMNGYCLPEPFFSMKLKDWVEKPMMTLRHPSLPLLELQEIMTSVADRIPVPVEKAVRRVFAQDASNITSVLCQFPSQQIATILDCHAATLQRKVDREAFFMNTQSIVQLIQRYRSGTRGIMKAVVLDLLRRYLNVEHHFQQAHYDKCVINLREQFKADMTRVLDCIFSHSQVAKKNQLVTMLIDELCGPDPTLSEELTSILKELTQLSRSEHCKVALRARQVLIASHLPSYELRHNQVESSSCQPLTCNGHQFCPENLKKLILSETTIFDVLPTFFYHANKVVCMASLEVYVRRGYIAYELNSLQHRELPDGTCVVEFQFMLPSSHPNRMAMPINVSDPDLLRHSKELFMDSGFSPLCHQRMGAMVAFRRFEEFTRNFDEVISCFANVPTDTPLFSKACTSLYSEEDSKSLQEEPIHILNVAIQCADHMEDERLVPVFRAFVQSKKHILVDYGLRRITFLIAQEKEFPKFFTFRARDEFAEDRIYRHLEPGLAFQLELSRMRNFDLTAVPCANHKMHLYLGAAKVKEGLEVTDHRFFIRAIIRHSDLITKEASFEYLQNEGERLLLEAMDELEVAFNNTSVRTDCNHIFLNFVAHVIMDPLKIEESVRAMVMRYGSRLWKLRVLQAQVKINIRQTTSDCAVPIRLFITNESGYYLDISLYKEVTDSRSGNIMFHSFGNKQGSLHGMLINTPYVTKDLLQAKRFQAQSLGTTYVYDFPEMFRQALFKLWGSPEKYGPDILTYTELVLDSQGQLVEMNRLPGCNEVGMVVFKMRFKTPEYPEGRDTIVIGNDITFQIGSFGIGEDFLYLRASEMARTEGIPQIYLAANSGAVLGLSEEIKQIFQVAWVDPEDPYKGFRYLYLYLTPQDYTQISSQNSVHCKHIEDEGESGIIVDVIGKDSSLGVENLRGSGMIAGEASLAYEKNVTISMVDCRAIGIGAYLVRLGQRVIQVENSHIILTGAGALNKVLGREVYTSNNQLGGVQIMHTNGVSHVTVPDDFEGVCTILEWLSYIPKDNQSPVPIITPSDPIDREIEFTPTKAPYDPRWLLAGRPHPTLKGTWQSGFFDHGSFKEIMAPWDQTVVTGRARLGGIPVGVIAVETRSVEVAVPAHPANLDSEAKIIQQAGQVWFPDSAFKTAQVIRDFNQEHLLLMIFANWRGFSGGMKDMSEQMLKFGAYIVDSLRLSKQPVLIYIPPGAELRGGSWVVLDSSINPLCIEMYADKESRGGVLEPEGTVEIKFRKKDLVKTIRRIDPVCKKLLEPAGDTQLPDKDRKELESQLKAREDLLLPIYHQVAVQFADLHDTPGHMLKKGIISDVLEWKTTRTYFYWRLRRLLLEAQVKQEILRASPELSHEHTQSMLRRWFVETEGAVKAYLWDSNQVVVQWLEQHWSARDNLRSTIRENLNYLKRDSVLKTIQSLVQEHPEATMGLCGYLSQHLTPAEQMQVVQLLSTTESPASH

`COc1cc(C(=O)N2CCC3(CC2)CC(=O)c2c(cnn2C(C)C)C3)cc(-c2ccc(C(=O)O)cc2)n1` [PF-05221304]: the IC50 – broadly, the concentration at which inhibition is half-maximal – stood at 8.2 ± 4.1 nM.
